In one assay the test system is B16-OVA tumors. The assay is described as follows: B16-OVA syngeneic melanoma tumor growth. The settings on record: sixteen (16) days of treatment, regimens of Table 9. The class given is in vivo, C57BL/6 mice. Here is the method:
B16-OVA cells (˜1×10^5) were implanted in C57BL/6 mice. Animals were evaluated periodically and when tumors attained a size of approximately 3 mm×3 mm, animals were then grouped randomly and treated for sixteen (16) days.
At the end of treatment animals were sacrificed and dissected to evaluate and sample tumor masts.

In assay [1] the test system is unresectable or metastatic melanoma. The settings on record: Phase 3 trial, P<0.001; cited from earlier work.
Assay [2] relates to pancreatic adenocarcinoma. The following applies: murine pancreatic adenocarcinoma; cited from earlier work.
Assay [3] deals with melanoma, renal cell carcinoma, and ovarian cancer. The settings on record: murine models; cited from earlier work.
Assay [4] concerns solid tumors, e.g. advanced or metastatic melanoma. The assay is described as follows: Biomarker findings in tumors. Type of assay: in vivo. From the text:
Granzyme B is associated with cell death/apoptosis mediated by cytotoxic T lymphocytes (CTLs), natural killer (NK) cells, and cytotoxic T cells. Accordingly, in some embodiments, the biomarker is an observed increase in granzyme B expression in a tumor relative to a control. In some embodiments, the cancer is a solid tumor such as advanced or metastatic melanoma. […] Accordingly, in some embodiments, the biomarker is an observed increase in CD8^+ T cells and/or CD4^+ T cells in a tumor relative to a control. In other embodiments, the biomarker is an increase in the ratio of CD8^+ T cells to Treg cells. In some embodiments, the increase is observed by immunohistochemistry or expression levels of one or both of CD8A and CD8B. In some embodiments, an increase in CD8^+ T cells and/or CD4^+ T cells or CD8^+ T cells/Treg ratio in a tumor sample from a patient who has undergone treatment with […]-001 or X4-136 correlates with an increased likelihood that the patient will benefit from continued treatment with […]-001 alone or in combination with an immunotherapeutic agent, e.g., a checkpoint inhibitor such as a PD-1 antagonist. In some embodiments, the PD-1 antagonist is selected from nivolumab and pembrolizumab, or a biosimilar or variant of such PD-1 antagonists. In some embodiments, the checkpoint inhibitor is nivolumab. In some embodiments, the checkpoint inhibitor is a nivolumab biosimilar or variant. In some embodiments, the checkpoint inhibitor is pembrolizumab. In some embodiments, the checkpoint inhibitor is a pembrolizumab biosimilar or variant. In some embodiments, the tumor is a solid tumor such as advanced or metastatic melanoma. […] In some embodiments, the biomarker is IDO1. In some embodiments, the biomarker is CXCL10. In some embodiments, the biomarker is CXCL9. In some embodiments, the biomarker is HLA-DRA. In some embodiments, the biomarker is STAT1. In some embodiments, the biomarker is IFN-γ. In some embodiments, the biomarker is two or more of IDOL, CXCL10, CXCL9, HLA-DRA, STAT1 and IFN-γ. In some embodiments, the biomarker is three or more of IDO1, CXCL10, CXCL9, HLA-DRA, STAT1 and IFN-γ. In some embodiments, the biomarker is four or more of IDOL, CXCL10, CXCL9, HLA-DRA, STAT1 and IFN-γ. In some embodiments, the biomarker is five or more of IDOL, CXCL10, CXCL9, HLA-DRA, STAT1 and IFN-γ. In some embodiments, the biomarker is all of IDOL, CXCL10, CXCL9, HLA-DRA, STAT1 and IFN-γ. In some embodiments, the biomarker is an increase of all of IDO1, CXCL10, CXCL9, HLA-DRA, STAT1 and IFN-γ. In some embodiments, an increase in one, two, three, four, five, or all of IDOL, CXCL10, CXCL9, HLA-DRA, STAT1 and IFN-γ in a tumor sample from a patient who has undergone treatment with […]-001 correlates with an increased likelihood that the patient will benefit from continued treatment with […]-001 alone or in combination with an immunotherapeutic agent, e.g., a checkpoint inhibitor such as a PD-1 antagonist. In some embodiments, the PD-1 antagonist is selected from nivolumab and pembrolizumab, or a biosimilar or variant of such PD-1 antagonists. In some embodiments, the checkpoint inhibitor is nivolumab. In some embodiments, the checkpoint inhibitor is a nivolumab biosimilar or variant. In some embodiments, the checkpoint inhibitor is pembrolizumab. In some embodiments, the checkpoint inhibitor is a pembrolizumab biosimilar or variant. In some embodiments, the tumor is a solid tumor such as advanced or metastatic melanoma. In some embodiments, the biomarker or the use thereof is one of those described in Ayers et al., Journal of Clinical Investigation 2017, 127(8), 2930-2940 [29] (“Ayers et al. (2017)”) or WO 2016/094377, each of which is hereby incorporated by reference. […] Accordingly, in some embodiments, the biomarker is maintenance or decrease of Treg levels in a tumor relative to a control. In some embodiments, the biomarker is the level of FoxP3 expression, which serves as a means to determine the Treg level. […]

Setting [5] is: solid tumors, e.g. advanced or metastatic melanoma.

As for `NCCCCN(Cc1nc2ccccc2[nH]1)[C@H]1CCCc2cccnc21` [X4P], in the assay with B16-OVA tumors, the tumor volumes result is reported as “substantially reduced tumor volumes”.

Turning to ipilimumab: anti-CTLA-4 antibody, the objective response rate in assay [1] is given as 12%.

Consider `c1cc(CN2CCCNCCNCCCNCC2)ccc1CN1CCCNCCNCCCNCC1` [AMD3100, reference compound], for which the “T-cell accumulation among the cancer cells” value in assay [2] is “induced rapid T-cell accumulation”. Moreover, the anti-tumor activity entry in assay [3] was “significant anti-tumor activity, including decreased metastasis and increased overall survival”.

Turning to `Cc1cccnc1[C@H]1CCC[C@@H](c2ncccc2C)N1CCCCN` [X4-136], in assay [4] (in vivo), the “CTL signature gene expression in tumor samples or the tumor microenvironment” value is “increase”; the “IFN-γ gene signature (panel of IFN-γ related genes)” value is “increase”; the “PD-L1 expression in tumor samples and the tumor microenvironment” value is recorded as “increase”. Moreover, in assay [4] (setting [5]), the “granzyme B (GZMB) expression in cancers” value is reported as “increases”, the “levels of Treg cells” value is recorded as “without significantly increasing”, the “levels of macrophages in the tumor” value is recorded as “without significantly modulating” and the “observed numbers of CD8+ T cells and/or CD4+ T cells in cancers” value is “increases”. In addition, the “levels of the VISTA panel of biomarkers” value in assay [4] (tumor samples and the tumor microenvironment) is “modulate”.

With “Pembrolizumab: humanized IgG4 kappa monoclonal antibody that blocks the interaction between PD-1 and its ligands”, the objective response rate in assay [1] is given as 33%.

(Values after patent publication US20210349099A1, “CANCER BIOMARKERS AND METHODS OF USE THEREOF” (X4 Pharmaceuticals, Inc., priority 2017, published 2021).)
